The values below come from patent publication US9346770B2, “Compounds having activating effect on subtypes of peroxisome proliferator-activated receptors and its preparation method and uses” (ZHEJIANG HISUN PHARMACEUTICAL CO., LTD., priority 2010, dated 2016).

Common to all, as to type: cell-based
In one test the target is PPARα (Homo sapiens (Human), UniProt Q07869). In words: Nuclear receptor reporter gene (luciferase) screening model, PPARα activation in HepG2 cells. As to conditions: for Experiment results (relative activation fold) PPARα: HepG2, solvent control = 1; for EC50: HepG2 reporter gene, 6 concentrations; for activation effect on PPARα receptor (in words): screening results. The text has this:
(§1) Using a reporter gene method, a screening model for screening a nuclear receptor agonist in living cells is designed on the basis of the principal that a nuclear receptor can activate transcription of its downstream gene after being activated. A reporter gene plasmid is constructed, in which the DNA binding sequence for the nuclear receptor (NRE) is inserted at the upstream of a luciferase gene, such that the expression of the luciferase gene is regulated by the nuclear receptor. The reporter gene plasmid is transferred into a cell simultaneously with the nuclear receptor. The nuclear receptor will be activated when a nuclear receptor agonist presents in the cell culture medium. The receptor being activated can induce the expression of the luciferase gene, while the amount of generated luciferase can be determined with its luminescent substrate. In this way, the intensity of activation of the nuclear receptor by the compound can be determined by observing the luminescence intensity. For the calibration of the experimental error caused by factors such as transfection efficiency, amount of inoculated cells, toxicity of the compound, etc, a GFP plasmid is co-transfected simultaneously as the internal reference. In the analysis of the experimental results, the luminescent values tested for all wells are calibrated with GFP values. The experimental results are expressed as relative activation fold, with a value of 1 for the solvent control. The greater the fold is, the higher the activation capacity represents.
(§2) The detailed procedure is described as follows:
(§3) Hepatocarcinoma cell HepG2 (from ATCC, American Type Culture Collection) was cultured in a DMEM medium supplemented with 10% heat-inactivated fetal bovine serum (FBS, Invitogen, Grand Island, N.Y., USA) in a T-75 culture flask (Greiner, Germany) placed in a 5% CO2 incubator at 37° C. and 100% relative humidity.
(§4) On the next day, when the cells in the 96-well culture plate grew up to 50-80% confluency, cell transfection was performed. The cell co-transfection system comprised FuGene6 transfection agent (Roche Molecular Biochemicals, Indianapolis, Ind., U.S.A.) and 60 ng DNA (10 ng hRXR, 10 ng pCMV βGal, 10 ng nuclear receptor expression plasmid RXR/PPARα, δ, γ, 30 ng GFP fluorescence reporter gene plasmid, respectively).
(§5) The cell culture medium was discarded immediately after 24 hours of transfection and replaced by 200 μl fresh DMEM medium containing the test medicament (with 10% FBS treated by activated carbon). The final concentration gradients of the test medicament were 10 μM, 5 μM, 1 μM, 0.1 μM, 0.01 μM, 0.001 μM, and 0 μM. 0.05 μM 2-bromostearic acid (purchased from Sigma, USA) was used as the positive control. The final concentration of DMSO in each well was 0.1%.
(§6) After 24 h treatment with the medicament, the cells were lysed with a lysis solution (Cell Culture Lysis buffer, Promega) and centrifuged, and the supernatant was collected. The supernatant was reacted with a fluorescence assay kit (Promega) and counted by a fluorometer (Ascent Fluoroskan FL reader, Thermo Labsystems, Finland), and the relative intensity of luciferase was determined. For the assay of the β-galactosidase activity used in the experiment as the internal reference (the internal reference for calibrating the transfection efficiency), 50 μl of the supernatant was transferred into a fresh microplate, treated with a Promega kit, and the value was read with a microplate reader at a wavelength of 405 nm (Bio-tech Instruments Inc., Winooski, Vt., USA) (Sauerberg, P.; Olsen, G. S.; Jeppesen, L.; Mogensen, J. P. et al., J. Med. Chem., 2007, 50, 1495-1503).
(§7) In the present screening protocol, it was calculated according to the activation of the receptor by the sample at 6 different concentrations.
(§8) The concentration-activity profile of the effects of a compound was fitted by carrying out iterative computation according to the following formula, and corresponding EC50 was calculated: […]

Another test addresses PPARδ (Homo sapiens (Human), UniProt Q03181). In words: Nuclear receptor reporter gene (luciferase) screening model, PPARδ activation in HepG2 cells. Conditions: for Experiment results (relative activation fold) PPARδ: HepG2, solvent control = 1; for EC50: HepG2 reporter gene, 6 concentrations; for activation effect on PPARδ receptor (in words): screening results.
Source text: as §1, §2, §3, §4, §5, §6, §7, §8

The target in another test is PPARγ (Homo sapiens (Human), UniProt P37231). The test can be described thus: Nuclear receptor reporter gene (luciferase) screening model, PPARγ activation in HepG2 cells. Conditions: for Experiment results (relative activation fold) PPARγ: HepG2, solvent control = 1; for EC50: HepG2 reporter gene, 6 concentrations; for activation effect on PPARγ receptor (in words): screening results.
Source text: as §1, §2, §3, §4, §5, §6, §7, §8

PPARδ, sequence (Q03181 whole entry, species assumed): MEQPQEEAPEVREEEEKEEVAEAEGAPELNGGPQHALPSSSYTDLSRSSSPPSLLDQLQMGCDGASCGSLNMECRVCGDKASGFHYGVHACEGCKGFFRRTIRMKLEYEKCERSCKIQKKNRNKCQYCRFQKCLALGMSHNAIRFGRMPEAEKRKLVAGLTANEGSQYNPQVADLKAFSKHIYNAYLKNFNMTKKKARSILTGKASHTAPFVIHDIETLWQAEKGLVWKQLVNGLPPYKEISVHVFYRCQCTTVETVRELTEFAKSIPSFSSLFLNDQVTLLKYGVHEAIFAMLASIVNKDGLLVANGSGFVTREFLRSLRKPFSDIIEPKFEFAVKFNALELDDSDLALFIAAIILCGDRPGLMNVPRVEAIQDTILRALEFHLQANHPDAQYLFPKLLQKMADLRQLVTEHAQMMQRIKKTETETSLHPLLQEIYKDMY
PPARδ, sequence (P19793 whole entry partner, species assumed): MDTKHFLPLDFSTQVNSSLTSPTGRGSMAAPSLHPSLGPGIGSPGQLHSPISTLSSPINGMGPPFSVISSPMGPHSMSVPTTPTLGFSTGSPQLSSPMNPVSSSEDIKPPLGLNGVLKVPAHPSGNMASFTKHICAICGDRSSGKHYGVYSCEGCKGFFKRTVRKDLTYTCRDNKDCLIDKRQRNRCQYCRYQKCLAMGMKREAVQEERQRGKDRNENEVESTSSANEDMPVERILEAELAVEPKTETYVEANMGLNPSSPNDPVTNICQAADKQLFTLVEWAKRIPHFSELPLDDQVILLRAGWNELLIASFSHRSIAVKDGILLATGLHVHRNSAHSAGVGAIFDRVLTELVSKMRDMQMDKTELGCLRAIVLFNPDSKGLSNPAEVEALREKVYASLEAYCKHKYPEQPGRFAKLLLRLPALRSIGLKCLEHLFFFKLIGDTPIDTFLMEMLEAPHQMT
PPARα, sequence (Q07869 whole entry, species assumed): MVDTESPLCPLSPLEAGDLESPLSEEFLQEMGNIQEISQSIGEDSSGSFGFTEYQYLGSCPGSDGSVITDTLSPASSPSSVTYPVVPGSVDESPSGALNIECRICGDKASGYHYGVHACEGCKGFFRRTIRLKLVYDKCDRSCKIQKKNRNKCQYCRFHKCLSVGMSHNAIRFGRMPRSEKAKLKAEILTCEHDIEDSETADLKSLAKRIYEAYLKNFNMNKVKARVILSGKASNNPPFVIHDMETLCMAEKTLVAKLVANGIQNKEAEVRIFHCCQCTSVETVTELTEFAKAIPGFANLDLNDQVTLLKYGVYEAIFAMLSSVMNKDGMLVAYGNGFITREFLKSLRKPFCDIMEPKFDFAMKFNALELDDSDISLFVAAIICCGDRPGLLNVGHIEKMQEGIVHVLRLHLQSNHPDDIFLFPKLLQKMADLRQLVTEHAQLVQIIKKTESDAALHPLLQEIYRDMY
PPARα, sequence (P19793 whole entry partner, species assumed): as the sequence (P19793 whole entry partner, species assumed) above
PPARγ, sequence (P37231 whole entry, species assumed): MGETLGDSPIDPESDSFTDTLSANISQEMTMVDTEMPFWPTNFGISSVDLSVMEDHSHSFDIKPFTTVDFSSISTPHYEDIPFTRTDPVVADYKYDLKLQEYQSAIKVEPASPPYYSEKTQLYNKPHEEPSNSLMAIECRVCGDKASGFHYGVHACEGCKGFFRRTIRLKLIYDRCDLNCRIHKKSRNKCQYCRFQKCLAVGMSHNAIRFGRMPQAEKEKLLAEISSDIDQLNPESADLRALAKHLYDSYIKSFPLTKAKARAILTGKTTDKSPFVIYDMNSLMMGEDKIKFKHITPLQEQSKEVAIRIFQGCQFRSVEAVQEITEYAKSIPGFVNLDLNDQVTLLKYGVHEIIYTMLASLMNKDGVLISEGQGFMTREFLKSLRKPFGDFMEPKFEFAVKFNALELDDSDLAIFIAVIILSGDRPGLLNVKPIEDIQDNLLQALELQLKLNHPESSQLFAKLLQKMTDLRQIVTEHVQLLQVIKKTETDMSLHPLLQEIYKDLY
PPARγ, sequence (P19793 whole entry partner, species assumed): as the sequence (P19793 whole entry partner, species assumed) above

For `CCc1cc(OCCc2nc(-c3ccc(F)cc3)oc2C)ccc1CCC(=O)O` [Compound 1, 3-(2-ethyl-4-{2-[2-(4-fluorophenyl)-5-methyloxazol-4-yl]ethoxyl}phenyl)propionic acid], the “Experiment results (relative activation fold) PPARα” value on PPARα (0.001 uM) was 1.00 fold; on PPARα (0.01 uM), 1.08 fold; on PPARα (0.1 uM) it was 1.12 fold; on PPARα (1 uM), 1.36 fold; on PPARα (5 uM), 1.35 fold; at PPARα (10 uM), 1.72 fold. Moreover, the EC50 on PPARα was 29 nM; on PPARδ it was 29 nM; on PPARγ, 13 nM. Also, the “activation effect on PPARα receptor (in words)” value on PPARα is listed as “better activation effects”. The “Experiment results (relative activation fold) PPARδ” value at PPARδ (0.001 uM) was determined as 1.07 fold; at PPARδ (0.01 uM), 1.12 fold; on PPARδ (0.1 uM), 1.19 fold; at PPARδ (1 uM), 1.40 fold; at PPARδ (5 uM), 1.33 fold; on PPARδ (10 uM) it was 1.80 fold. Also, on PPARδ, the “activation effect on PPARδ receptor (in words)” value was “better activation effects”. For the same compound, the “Experiment results (relative activation fold) PPARγ” value at PPARγ (0.001 uM) was 1.09 fold; on PPARγ (0.01 uM), 1.21 fold; on PPARγ (0.1 uM) it was 1.26 fold; at PPARγ (1 uM) it was 1.45 fold; at PPARγ (5 uM), 1.62 fold; on PPARγ (10 uM), 2.01 fold. Besides, on PPARγ, the “activation effect on PPARγ receptor (in words)” value is recorded as “better activation effects”.
Consider `CCc1cc(OCCc2coc(-c3ccc(C(F)(F)F)cc3)n2)ccc1CCC(=O)O` [Compound 2], for which the “Experiment results (relative activation fold) PPARα” value at PPARα (0.001 uM) turned out to be 1.01 fold; at PPARα (0.01 uM) it was 1.06 fold; at PPARα (0.1 uM), 1.16 fold; on PPARα (1 uM), 1.30 fold; on PPARα (5 uM) it was 1.38 fold; at PPARα (10 uM), 1.82 fold. Moreover, the EC50 was 5500 nM on PPARα, less than 1 nM at PPARδ and 692 nM at PPARγ. In addition, the “Experiment results (relative activation fold) PPARδ” value at PPARδ (0.001 uM) is given as 1.02 fold; on PPARδ (0.01 uM) it was 1.17 fold; on PPARδ (0.1 uM), 1.17 fold; on PPARδ (1 uM), 1.34 fold; at PPARδ (5 uM), 1.45 fold; at PPARδ (10 uM) it was 1.99 fold. In addition, the “Experiment results (relative activation fold) PPARγ” value on PPARγ (0.001 uM) worked out at 1.09 fold; on PPARγ (0.01 uM) it was 1.26 fold; on PPARγ (0.1 uM), 1.26 fold; at PPARγ (1 uM) it was 1.49 fold; at PPARγ (5 uM) it was 1.73 fold; at PPARγ (10 uM), 2.28 fold.
With `CCc1cc(OCCc2nc(-c3ccc(C(F)(F)F)cc3)oc2C)ccc1CCC(=O)O` [Compound 3], the “Experiment results (relative activation fold) PPARα” value on PPARα (0.001 uM) is 0.99 fold; at PPARα (0.01 uM), 1.11 fold; at PPARα (0.1 uM), 1.19 fold; on PPARα (1 uM), 1.28 fold; at PPARα (5 uM), 1.33 fold; at PPARα (10 uM), 1.79 fold. In addition, the EC50 on PPARα is 4 nM; at PPARδ, less than 1 nM; at PPARγ it was 5 nM. Besides, the “activation effect on PPARα receptor (in words)” value on PPARα is “better activation effects”. In addition, the “Experiment results (relative activation fold) PPARδ” value is reported as 1.11 fold on PPARδ (0.001 uM); 1.17 fold on PPARδ (0.01 uM); 1.22 fold at PPARδ (0.1 uM); 1.34 fold on PPARδ (1 uM); 1.50 fold on PPARδ (5 uM); 1.94 fold on PPARδ (10 uM). For the same compound, the “activation effect on PPARδ receptor (in words)” value on PPARδ is reported as “better activation effects”. The “Experiment results (relative activation fold) PPARγ” value on PPARγ (0.001 uM) is 1.10 fold; at PPARγ (0.01 uM) it was 1.30 fold; at PPARγ (0.1 uM) it was 1.32 fold; at PPARγ (1 uM) it was 1.56 fold; on PPARγ (5 uM), 1.78 fold; on PPARγ (10 uM) it was 2.06 fold. The “activation effect on PPARγ receptor (in words)” value at PPARγ was “better activation effects”.
`CCc1cc(OCCc2nc(-c3ccc(C(C)(C)C)cc3)oc2C)ccc1CCC(=O)O` [Compound 4]: the “Experiment results (relative activation fold) PPARα” value on PPARα (0.001 uM) turned out to be 1.14 fold; on PPARα (0.01 uM), 1.20 fold; at PPARα (0.1 uM), 1.18 fold; on PPARα (1 uM), 1.65 fold; at PPARα (5 uM), 2.31 fold; on PPARα (10 uM), 2.96 fold. Also, the EC50 on PPARα turned out to be 5500 nM; at PPARδ it was 851 nM; on PPARγ, 89 nM. Besides, the “Experiment results (relative activation fold) PPARδ” value on PPARδ (0.001 uM) came out at 1.45 fold; at PPARδ (0.01 uM) it was 1.53 fold; on PPARδ (0.1 uM), 2.25 fold; at PPARδ (1 uM) it was 3.51 fold; at PPARδ (5 uM), 4.22 fold; at PPARδ (10 uM), 4.60 fold. Moreover, the “Experiment results (relative activation fold) PPARγ” value was 2.70 fold on PPARγ (0.001 uM); 3.78 fold at PPARγ (0.01 uM); 3.81 fold on PPARγ (0.1 uM); 5.17 fold on PPARγ (1 uM); 4.19 fold on PPARγ (5 uM); 5.88 fold at PPARγ (10 uM).
